One data set deals with CDK-2/cyclinA (Homo sapiens, UniProt P24941). The experiment in a line: CDK panel (Reaction Biology). It counts as biochemical. To be noted: tested at Reaction Biology, Inc.
Another data set has as its target CDK-3/cyclinE (Homo sapiens, UniProt Q00526). The note with it: read-out: IC50 (μM) CDK-3/cyclinE; tested at Reaction Biology, Inc.
For another data set, the target named is CDK-4/cyclinD1 (Homo sapiens, UniProt P11802). The experiment in a line: CDK panel (Reaction Biology). The format is biochemical. The note with it: tested at Reaction Biology, Inc.
CDK-4/cyclinD1, sequence (P11802 whole entry, species assumed): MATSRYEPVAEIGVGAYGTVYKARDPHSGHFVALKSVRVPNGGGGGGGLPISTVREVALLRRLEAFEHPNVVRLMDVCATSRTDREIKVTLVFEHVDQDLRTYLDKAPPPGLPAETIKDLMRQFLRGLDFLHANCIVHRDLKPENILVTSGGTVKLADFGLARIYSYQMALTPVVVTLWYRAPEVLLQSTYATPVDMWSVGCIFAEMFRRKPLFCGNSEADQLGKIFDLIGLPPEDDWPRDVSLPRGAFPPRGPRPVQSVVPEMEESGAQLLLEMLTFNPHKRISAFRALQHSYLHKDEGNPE
CDK-4/cyclinD1, sequence (P24385 whole entry partner, species assumed): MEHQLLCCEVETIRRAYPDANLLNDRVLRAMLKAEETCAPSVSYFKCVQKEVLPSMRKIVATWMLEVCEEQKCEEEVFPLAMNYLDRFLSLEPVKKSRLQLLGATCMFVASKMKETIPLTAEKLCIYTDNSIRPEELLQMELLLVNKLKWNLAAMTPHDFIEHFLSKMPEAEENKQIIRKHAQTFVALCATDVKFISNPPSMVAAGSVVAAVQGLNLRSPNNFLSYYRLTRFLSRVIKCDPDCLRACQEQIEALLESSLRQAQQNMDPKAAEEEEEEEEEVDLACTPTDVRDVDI
The next data set has as its target CDK-2/cyclinE (Homo sapiens, UniProt P24941). The experiment in a line: CDK-2/CyclinE inhibition (Reaction Biology). The format is biochemical. To be noted: tested at Reaction Biology, Inc.
Data set [1] has as its target T1, recombinant human His6-GSK-3β (Homo sapiens, UniProt P49841).
T1 construct: His6; purchased EMD Biosciences
The experiment in a line: GSK-3β kinase assay, [γ32P] transfer to primed glycogen synthase peptide.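 Note: phosphate incorporation quantified by liquid scintillation counting of the filters.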 To be noted: 10 μM ATP; 10 μM pGSM peptide; 30 minutes at 30° C.; read-out: IC50 (nM), GSK-3β inhibition. The format is biochemical.

The target of another data set is CDK-6/cyclinD3 (Homo sapiens, UniProt Q00534). The data set can be described thus: CDK panel (Reaction Biology). The format is biochemical. The note with it: tested at Reaction Biology, Inc.
CDK-6/cyclinD3, sequence (Q00534 whole entry, species assumed): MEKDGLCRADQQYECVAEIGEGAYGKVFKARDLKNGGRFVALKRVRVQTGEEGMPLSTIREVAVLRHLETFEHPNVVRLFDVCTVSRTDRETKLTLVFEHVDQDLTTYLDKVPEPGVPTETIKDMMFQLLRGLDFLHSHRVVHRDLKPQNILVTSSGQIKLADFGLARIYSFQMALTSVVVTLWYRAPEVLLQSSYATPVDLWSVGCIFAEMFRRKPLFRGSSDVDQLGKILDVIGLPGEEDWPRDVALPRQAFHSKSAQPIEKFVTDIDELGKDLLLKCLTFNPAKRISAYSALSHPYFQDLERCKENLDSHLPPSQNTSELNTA
CDK-6/cyclinD3, sequence (P30281 whole entry partner, species assumed): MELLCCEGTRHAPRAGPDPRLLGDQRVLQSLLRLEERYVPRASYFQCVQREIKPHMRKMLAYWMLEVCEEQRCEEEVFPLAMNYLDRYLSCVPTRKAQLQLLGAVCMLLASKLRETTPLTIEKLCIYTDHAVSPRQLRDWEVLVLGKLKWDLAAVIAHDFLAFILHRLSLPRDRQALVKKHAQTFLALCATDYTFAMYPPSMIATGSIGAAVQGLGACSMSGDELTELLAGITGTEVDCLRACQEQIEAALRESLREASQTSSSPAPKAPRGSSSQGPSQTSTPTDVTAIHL
A further data set concerns the target CDK-1/cyclinB (Homo sapiens, UniProt P06493). The data set can be described thus: CDK panel (Reaction Biology). It counts as biochemical. The note with it: tested at Reaction Biology, Inc.
The target of another data set is CDK-9/cyclinT1 (Homo sapiens, UniProt P50750). The data set can be described thus: CDK panel (Reaction Biology). To be noted: tested at Reaction Biology, Inc. The format is biochemical.
For the next data set, the target named is Tek (Homo sapiens, UniProt Q02763). The experiment in a line: Kinase panel (Novartis). It counts as biochemical.
For the next data set, the target named is c-Abl (Homo sapiens, UniProt P00519). The data set can be described thus: Kinase panel (Novartis). It counts as biochemical.
The test system of a further data set is SKOV3. The experiment in a line: Antiproliferation assay, ovarian cancer cells. The format is cell-based. To be noted: Homo sapiens, SK-OV-3; ovarian cancer cell proliferation. On the procedure: (§1) The pancreatic cancer cell lines BxPc-3, HupT3, MiaPaCa-2, Panc 04.03, and SU86.86 were obtained from ATCC (Rockville, Md.) and were grown in medium (DMEM or RPMI) containing 10% fetal calf serum and L-glutamine. Pancreatic cancer cells were plated out in duplicate into 6-wells of a 96-well microtiter plate at 2.5−4×10^3 cells per well. Four-hours post plating, individual wells were treated with diluent (DMSO) or varying concentrations of commercial compounds, AR-A014418 and SB216763, or the indicated GSK inhibitors of this invention from a concentration of 1 nM to 50 microM. […] The IC50s were calculated using XLfit (IDBS Limited, Guildford, UK).
(§2) Similar antiproliferation assays were performed using ovarian cancer cells. Compound 40 is of particular interest for inhibition of ovarian cancer cell proliferation.

In the next data set the test system is OVCA432. The experiment in a line: Antiproliferation assay, ovarian cancer cells. The format is cell-based. The note with it: ovarian cancer cell proliferation. On the procedure: as §1, §2
For another data set, the target named is IGF-1R (Homo sapiens, UniProt P08069). The experiment in a line: Kinase panel (Novartis). The format is biochemical.
In a further data set the target is JNK1 (Homo sapiens, UniProt P45983). The experiment in a line: Kinase panel (Novartis). The format is biochemical.
JNK1, sequence (P45983 whole entry, species assumed): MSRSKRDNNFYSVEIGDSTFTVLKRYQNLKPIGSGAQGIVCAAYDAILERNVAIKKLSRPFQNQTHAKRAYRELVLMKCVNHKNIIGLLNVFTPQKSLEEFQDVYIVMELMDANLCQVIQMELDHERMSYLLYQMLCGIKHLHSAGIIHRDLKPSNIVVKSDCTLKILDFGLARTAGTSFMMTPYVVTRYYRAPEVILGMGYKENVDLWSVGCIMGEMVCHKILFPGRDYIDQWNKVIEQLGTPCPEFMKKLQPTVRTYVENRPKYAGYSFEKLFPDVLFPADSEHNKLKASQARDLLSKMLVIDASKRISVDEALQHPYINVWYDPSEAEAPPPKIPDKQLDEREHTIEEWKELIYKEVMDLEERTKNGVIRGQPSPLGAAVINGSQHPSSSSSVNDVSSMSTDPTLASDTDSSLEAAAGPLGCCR
For the next data set, the target named is Flt-3 (Homo sapiens, UniProt P36888). The experiment in a line: Kinase panel (Novartis). It counts as biochemical.
The target of a further data set is CDK2/A (Homo sapiens, UniProt P24941). The data set can be described thus: Kinase panel (Novartis). The format is biochemical.
The next data set concerns the target EphB4 (Homo sapiens, UniProt P54760). The experiment in a line: Kinase panel (Novartis). It counts as biochemical.
A further data set has as its system MIAPaCa-2. The experiment in a line: Antiproliferation MTS assay, pancreatic cancer cells. The format is cell-based. The note with it: Homo sapiens.
In another data set the target is c-Abl-T3151 (Homo sapiens, UniProt P00519, T315I). The experiment in a line: Kinase panel (Novartis). It counts as biochemical.
For another data set, the target named is FGFR-3-K650E (Homo sapiens, UniProt P22607, K650E). The experiment in a line: Kinase panel (Novartis). The format is biochemical.
FGFR-3-K650E, sequence (P22607 23-806 K650E): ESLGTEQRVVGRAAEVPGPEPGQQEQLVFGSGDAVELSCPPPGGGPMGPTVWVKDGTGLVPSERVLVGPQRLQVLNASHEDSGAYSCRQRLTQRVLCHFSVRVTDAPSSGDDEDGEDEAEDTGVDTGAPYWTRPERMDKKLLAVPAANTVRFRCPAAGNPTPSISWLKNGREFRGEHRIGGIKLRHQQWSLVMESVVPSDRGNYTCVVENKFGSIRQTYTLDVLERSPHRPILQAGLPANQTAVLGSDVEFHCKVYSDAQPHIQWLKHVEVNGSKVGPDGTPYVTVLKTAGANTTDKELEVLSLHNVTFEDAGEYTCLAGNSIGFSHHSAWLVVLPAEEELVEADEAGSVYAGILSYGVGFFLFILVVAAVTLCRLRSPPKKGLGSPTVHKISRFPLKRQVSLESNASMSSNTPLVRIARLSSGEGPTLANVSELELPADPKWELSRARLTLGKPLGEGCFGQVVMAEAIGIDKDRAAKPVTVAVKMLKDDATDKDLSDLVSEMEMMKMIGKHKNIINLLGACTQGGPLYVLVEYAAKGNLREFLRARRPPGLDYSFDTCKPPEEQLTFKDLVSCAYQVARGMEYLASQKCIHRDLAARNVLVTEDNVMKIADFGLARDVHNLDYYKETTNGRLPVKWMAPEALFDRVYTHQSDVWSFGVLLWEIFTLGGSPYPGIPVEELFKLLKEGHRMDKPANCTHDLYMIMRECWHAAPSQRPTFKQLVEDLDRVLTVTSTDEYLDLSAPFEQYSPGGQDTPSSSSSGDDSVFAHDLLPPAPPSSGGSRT
In another data set the test system is HupT3. The data set can be described thus: Antiproliferation MTS assay, pancreatic cancer cells. The format is cell-based. To be noted: Homo sapiens, HuP-T3, as reported in Gaisina et al. (2009) J. Med. Chem. 52(7), 1853-1863.
The target of the next data set is c-src (Homo sapiens, UniProt P12931). The data set can be described thus: Kinase panel (Novartis). The format is biochemical.
c-src, sequence (P12931 whole entry, species assumed): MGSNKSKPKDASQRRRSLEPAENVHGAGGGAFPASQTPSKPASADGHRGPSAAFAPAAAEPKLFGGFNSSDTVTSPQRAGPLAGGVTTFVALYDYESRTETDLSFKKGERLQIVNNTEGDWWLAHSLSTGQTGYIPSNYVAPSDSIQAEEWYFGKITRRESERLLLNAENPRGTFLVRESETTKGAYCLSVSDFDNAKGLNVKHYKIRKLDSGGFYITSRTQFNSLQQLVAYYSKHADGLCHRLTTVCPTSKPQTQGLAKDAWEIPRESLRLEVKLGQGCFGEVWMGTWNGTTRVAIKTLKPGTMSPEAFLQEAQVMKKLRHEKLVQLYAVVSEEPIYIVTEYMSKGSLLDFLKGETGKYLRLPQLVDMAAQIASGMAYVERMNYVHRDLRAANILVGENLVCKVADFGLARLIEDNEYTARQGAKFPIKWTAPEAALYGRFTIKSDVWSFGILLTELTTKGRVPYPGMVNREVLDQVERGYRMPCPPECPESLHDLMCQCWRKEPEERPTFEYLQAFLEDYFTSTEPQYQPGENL
The target in the next data set is Ret (Homo sapiens, UniProt P07949). The experiment in a line: Kinase panel (Novartis). The format is biochemical.
The target in the next data set is HER-1 (Homo sapiens, UniProt P00533). The experiment in a line: Kinase panel (Novartis). It counts as biochemical.
Another data set deals with PKCα (Homo sapiens, UniProt P17252). The data set can be described thus: Kinase panel (Novartis). The format is biochemical.
The target in a further data set is JAK-2 (Homo sapiens, UniProt O60674). The experiment in a line: Kinase panel (Novartis). The format is biochemical.
Another data set deals with Axl (Homo sapiens, UniProt P30530). The experiment in a line: Kinase panel (Novartis). It counts as biochemical.
The next data set deals with c-Met (Homo sapiens, UniProt P08581). The data set can be described thus: Kinase panel (Novartis). The format is biochemical.
A further data set deals with b-Raf-V599E (Homo sapiens, UniProt P15056, V600E). The data set can be described thus: Kinase panel (Novartis). It counts as biochemical.
b-Raf-V599E, sequence (P15056 whole entry V600E): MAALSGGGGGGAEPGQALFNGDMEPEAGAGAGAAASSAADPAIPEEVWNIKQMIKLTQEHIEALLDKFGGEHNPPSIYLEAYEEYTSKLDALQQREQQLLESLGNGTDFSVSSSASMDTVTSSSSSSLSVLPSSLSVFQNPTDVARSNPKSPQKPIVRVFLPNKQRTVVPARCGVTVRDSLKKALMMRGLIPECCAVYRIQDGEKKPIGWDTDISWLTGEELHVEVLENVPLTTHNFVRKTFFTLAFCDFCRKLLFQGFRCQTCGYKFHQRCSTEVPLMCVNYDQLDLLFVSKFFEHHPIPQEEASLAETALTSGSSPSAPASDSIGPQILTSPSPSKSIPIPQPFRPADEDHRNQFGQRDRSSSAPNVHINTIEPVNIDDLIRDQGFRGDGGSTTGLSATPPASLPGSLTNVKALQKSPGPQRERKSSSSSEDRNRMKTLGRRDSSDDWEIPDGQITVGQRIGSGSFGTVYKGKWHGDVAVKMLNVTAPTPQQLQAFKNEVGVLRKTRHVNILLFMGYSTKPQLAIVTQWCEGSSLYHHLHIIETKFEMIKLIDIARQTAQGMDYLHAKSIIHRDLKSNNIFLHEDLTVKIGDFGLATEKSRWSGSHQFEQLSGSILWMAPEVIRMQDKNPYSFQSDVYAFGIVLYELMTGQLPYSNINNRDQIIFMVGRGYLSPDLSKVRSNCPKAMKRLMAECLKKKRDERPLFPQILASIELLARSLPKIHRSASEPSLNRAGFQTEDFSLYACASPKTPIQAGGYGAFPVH
In another data set the target is KDR (Homo sapiens, UniProt P35968). The data set can be described thus: Kinase panel (Novartis). The format is biochemical.
Data set [2] in a line: Passage of the brain-blood barrier in animal models. It counts as in vivo. The note with it: as assessed in animal models.
In data set [3] the test system is C57BL/6J mice. The data set can be described thus: Amphetamine/chlordiazepoxide hyperactivity model of mania, open field locomotor activity. It counts as in vivo. To be noted: 5-ING-135 50 mg/kg, 5 min pretreatment; amphetamine 4 mg/kg + chlordiazepoxide 2.5 mg/kg; 60 min. How it is done:
Hyperactivity models are often used to mimic the mania associated with bipolar disorder.
Certain benzofuran-based ligands of this invention were studied in a novel mouse model of mania that has recently been validated with several clinically effective mood stabilizers. […] Mice were then injected with amphetamine (4 mg/kg) or amphetamine (4 mg/kg) and chlordiazepoxide (2.5 mg/kg) and locomotor activity was monitored for 60 min. The open field is a square box surrounded by an array of infra-red beams and their behavior is automatically recorded for 60 minutes in the open field test chamber (10.75″×10.75″×8″H with infra-red (I/R) array, model ENV 510, MED Associates). After this period the animals were returned to their home cages and then to the main colony.
Control treatments are as indicated. FIG. 1B illustrates similar locomotion activity data of treated mice measured in cm over 5 minute intervals for 60 minutes.

For another data set, the target named is FAK (Homo sapiens, UniProt Q05397). The experiment in a line: Kinase panel (Novartis). The format is biochemical.
Another data set deals with T2, PDK1 (Homo sapiens, UniProt O15530).
T2 sequence (O15530 1-556): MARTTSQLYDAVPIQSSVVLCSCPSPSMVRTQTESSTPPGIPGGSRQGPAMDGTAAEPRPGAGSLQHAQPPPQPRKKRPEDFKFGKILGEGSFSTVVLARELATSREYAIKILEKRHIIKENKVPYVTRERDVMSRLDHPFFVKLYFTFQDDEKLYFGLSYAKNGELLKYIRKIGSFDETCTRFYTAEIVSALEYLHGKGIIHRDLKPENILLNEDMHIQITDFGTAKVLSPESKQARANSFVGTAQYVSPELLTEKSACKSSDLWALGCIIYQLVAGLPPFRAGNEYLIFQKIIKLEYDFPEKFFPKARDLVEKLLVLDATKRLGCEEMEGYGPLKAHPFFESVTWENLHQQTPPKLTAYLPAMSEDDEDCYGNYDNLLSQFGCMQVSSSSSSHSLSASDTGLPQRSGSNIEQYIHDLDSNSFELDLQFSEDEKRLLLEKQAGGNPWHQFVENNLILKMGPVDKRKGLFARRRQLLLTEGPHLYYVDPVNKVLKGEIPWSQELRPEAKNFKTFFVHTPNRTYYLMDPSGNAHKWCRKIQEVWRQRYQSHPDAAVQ
The experiment in a line: Kinase panel (Novartis). It counts as biochemical.

The next data set deals with CDK-5/P35 (Homo sapiens, UniProt Q00535). The data set can be described thus: CDK panel (Reaction Biology). The format is biochemical. The note with it: tested at Reaction Biology, Inc.
A further data set addresses CDK-5/P25 (Homo sapiens, UniProt Q00535). The experiment in a line: CDK panel (Reaction Biology). The format is biochemical. The note with it: tested at Reaction Biology, Inc.
Data set [4] has as its system C57BL/6J mice. The note with it: Hanania et al. 2005; cited from earlier work.
The next data set deals with mice. To be noted: Hanania et al. 2005, Brody et al. 2003; cited from earlier work.

Molecules are shown by their SMILES.

The text below walks through data of US8207216B2, “Benzofuran-3-yl(indol-3-yl) maleimides as potent GSK3 inhibitors” (The Board of Trustees of the University of Illinois, priority 2006, dated 2012).

T1 sequence (P49841 whole entry): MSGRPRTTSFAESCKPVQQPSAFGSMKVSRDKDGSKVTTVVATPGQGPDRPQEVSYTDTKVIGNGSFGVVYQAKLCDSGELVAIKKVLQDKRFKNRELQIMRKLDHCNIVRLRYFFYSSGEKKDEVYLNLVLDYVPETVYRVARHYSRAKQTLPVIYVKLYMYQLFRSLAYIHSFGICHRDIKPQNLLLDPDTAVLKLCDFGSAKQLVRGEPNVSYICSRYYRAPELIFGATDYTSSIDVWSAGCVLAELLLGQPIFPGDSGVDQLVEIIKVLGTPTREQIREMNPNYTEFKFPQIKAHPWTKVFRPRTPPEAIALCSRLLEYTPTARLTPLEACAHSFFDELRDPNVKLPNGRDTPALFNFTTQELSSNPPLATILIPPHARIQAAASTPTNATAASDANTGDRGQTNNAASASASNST
CDK-1/cyclinB, sequence (P06493 whole entry, species assumed): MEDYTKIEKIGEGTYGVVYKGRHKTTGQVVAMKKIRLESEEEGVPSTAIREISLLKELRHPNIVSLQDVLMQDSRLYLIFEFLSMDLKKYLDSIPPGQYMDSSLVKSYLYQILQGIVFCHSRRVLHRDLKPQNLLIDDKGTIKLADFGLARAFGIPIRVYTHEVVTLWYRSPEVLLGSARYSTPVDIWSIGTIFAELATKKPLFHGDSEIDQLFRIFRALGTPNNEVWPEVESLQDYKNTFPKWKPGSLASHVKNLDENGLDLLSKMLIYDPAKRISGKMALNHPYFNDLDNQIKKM
CDK-1/cyclinB, sequence (P14635 whole entry partner, species assumed): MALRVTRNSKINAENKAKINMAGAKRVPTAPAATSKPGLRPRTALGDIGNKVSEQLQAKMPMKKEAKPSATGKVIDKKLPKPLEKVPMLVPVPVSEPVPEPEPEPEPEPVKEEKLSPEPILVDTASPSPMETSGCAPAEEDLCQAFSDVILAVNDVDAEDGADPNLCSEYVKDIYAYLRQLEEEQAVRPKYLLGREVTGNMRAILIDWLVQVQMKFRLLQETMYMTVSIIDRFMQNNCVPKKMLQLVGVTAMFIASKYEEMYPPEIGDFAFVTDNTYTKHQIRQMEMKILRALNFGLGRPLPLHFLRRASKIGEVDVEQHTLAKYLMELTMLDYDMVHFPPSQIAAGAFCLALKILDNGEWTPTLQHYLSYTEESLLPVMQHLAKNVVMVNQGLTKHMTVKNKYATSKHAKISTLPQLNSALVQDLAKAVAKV

In the case of `Cn1cc(C2=C(c3coc4cc(CO)ccc34)C(=O)NC2=O)c2cc(F)c(Cl)cc21` [Compound 13, 3-(6-Chloro-5-fluoro-1-methyl-1H-indol-3-yl)-4-(6-hydroxymethyl-benzofuran-3-yl)-pyrrole-2,5-dione], the IC50 on CDK-2/cyclinA is 10.6 µM; at CDK-3/cyclinE, 25.1 µM; on CDK-4/cyclinD1 it was 18.3 µM; on CDK-2/cyclinE, 11700 nM; in [1] it was 0.95 ± 0.19 nM; on CDK-6/cyclinD3, 11.6 µM. The IC50 on CDK-1/cyclinB is 13.4 µM; against CDK-9/cyclinT1, 5.4 µM.

Turning to `Cn1cc(C2=C(c3coc4ccccc34)C(=O)NC2=O)c2cc(Br)ccc21` [Compound 19, 3-Benzofuran-3-yl-4-(5-bromo-1-methyl-1H-indol-3-yl)-pyrrole-2,5-dione], the IC50 is greater than 10 µM on Tek; greater than 10 µM at c-Abl; 74.5 µM in the data set on SKOV3; 33.6 µM in the data set on OVCA432; greater than 10 µM at IGF-1R; greater than 10 µM against JNK1. Also, the IC50 is greater than 10 µM against Flt-3; 3.98 µM at CDK2/A; greater than 10 µM on EphB4; 30 ± 2.2 µM with MIAPaCa-2 (MIA PaCa-2, as reported in Gaisina et al. (2009) J. Med. Chem. 52(7), 1853-1863); 30 µM in the data set on MIAPaCa-2 (MIA PaCa-2, 72 hrs, MTS); greater than 10 µM against c-Abl-T3151. The IC50 was greater than 10 µM against FGFR-3-K650E; 43 ± 6.3 µM with HupT3; greater than 10 µM against c-src; greater than 10 µM on Ret; greater than 10 µM at HER-1; 61.4 µM on PKCα. In addition, the IC50 on JAK-2, on Axl, against c-Met, at b-Raf-V599E, against KDR and on FAK was greater than 10 µM in each case. In addition, the IC50 against PDK1 is greater than 10 µM. At CDK2/A, this molecule had a Ki of 189 nM. For the same molecule, the “Ability to pass the brain-blood barrier” value in data set [2] was “ability to pass the brain-blood barrier”. Moreover, the “Inhibition of hyperactivity produced by amphetamine/chlordiazepoxide (locomotor activity)” value with C57BL/6J mice [3] is on record as “inhibited the hyperactivity”.

`Cn1cc(C2=C(c3coc4ccccc34)C(=O)NC2=O)c2ccc(O)cc21` [Compound 45, 3-Benzofuran-3-yl-4-(6-hydroxy-1-methyl-1H-indol-3-yl)-pyrrole-2,5-dione]: the IC50 at Tek, against c-Abl, against IGF-1R, against Flt-3, on CDK2/A and against EphB4 was greater than 10 µM throughout. Also, the IC50 on c-Abl-T3151 was greater than 10 µM; on FGFR-3-K650E, 7 µM; at c-src, 4.5 µM; against Ret, 5 µM; against HER-1, 6.3 µM; in data set [1] it was 15 ± 3 nM. Besides, the IC50 at JAK-2 was greater than 10 µM; at Axl, greater than 10 µM; at c-Met, greater than 10 µM; at b-Raf-V599E, greater than 10 µM; at KDR, 2.2 µM; on FAK, greater than 10 µM. In addition, the IC50 against PDK1 stood at 0.73 µM.

Take `COCc1cccc2c(C3=C(c4coc5ccccc45)C(=O)NC3=O)cn(C)c12` [Compound 52, 3-Benzofuran-3-yl-4-(7-methoxymethyl-1-methyl-1H-indol-3-yl)-pyrrole-2,5-dione]: the IC50 turned out to be 4.09 µM at CDK-2/cyclinA; 17.7 µM on CDK-3/cyclinE; 8.62 µM against CDK-4/cyclinD1; 3880 nM against CDK-2/cyclinE; 0.23 ± 0.04 nM in [1]; 12.7 µM on CDK-5/P35. The IC50 against CDK-5/P25 is 12.9 µM; on CDK-6/cyclinD3, 8.33 µM; against CDK-1/cyclinB it was 8.53 µM; against CDK-9/cyclinT1, 16 µM.

On to `Nc1nnc(-c2cccc(Cl)c2Cl)c(N)n1` [lamotrigine], for which, in the data set on C57BL/6J mice [4], the “Block of CDP + amphetamine hyperactivity by mood stabilizers” value is recorded as “blocked”. In the data set with mice, the “Sensorimotor gating (prepulse inhibition)” value was “improve sensorimotor gating”.
